# Measured values taken from US6518243B1, “Desleucyl glycopeptide antibiotics and methods of making same” (Trustees of Princeton University, priority 1999, dated 2003).
# Columns and labels:
# E. faecium ATCC 49624 = experiment: MIC determination in BHI media, OD600; assay type: cell-based; details: BHI + 0.1% casamino acids, 18 hours at 37° C., ≧90% OD600 inhibition
# Summary of the method: (§1)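 Turbidity after 18 hours at 37° C defined the MIC. Cultures in logarithmic growth were set to approximately 5×10^5 CFU/ml and challenged with DMSO-diluted compound series.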
# E. Faecalis CL 4877 = experiment: MIC determination in BHI media, OD600; assay type: cell-based; details: BHI + 0.1% casamino acids, 18 hours at 37° C., ≧90% OD600 inhibition
# Summary of the method: as §1
# S aureus ATCC 29213 = experiment: MIC determination in BHI media, OD600; assay type: cell-based; details: BHI + 0.1% casamino acids, 18 hours at 37° C., ≧90% OD600 inhibition
# Summary of the method: as §1
# S. Aureus ATCC 33591 = experiment: MIC determination in BHI media, OD600; assay type: cell-based; details: BHI + 0.1% casamino acids, 18 hours at 37° C., ≧90% OD600 inhibition
# Summary of the method: as §1
# E. faecium CL 4931 = experiment: MIC determination in BHI media, OD600; assay type: cell-based; details: BHI + 0.1% casamino acids, 18 hours at 37° C., ≧90% OD600 inhibition
# Summary of the method: as §1
# [1] = tested on: S. epidermidis (ATCC 12228); experiment: Zone of inhibition screen, 96 well agar array format; assay type: cell-based; set-up: scale not given here; details: zone of inhibition relative to 1 mg/ml stock solution of p-chlorobiphenylvancomycin
# Summary of the method: (§2)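 Read-out is antibacterial activity on agar laid out as a 96-well array; every compound went through all strains of the panel.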
# E. faecalis (CL 4877) = experiment: as above; assay type: cell-based; set-up: scale not given here; details: zone of inhibition relative to 1 mg/ml stock solution of p-chlorobiphenylvancomycin
# Summary of the method: as §2
# S. aureus (ATCC 29213) = experiment: as above; assay type: cell-based; set-up: scale not given here; details: zone of inhibition relative to 1 mg/ml stock solution of p-chlorobiphenylvancomycin
# Summary of the method: as §2
# E. faceium (ATCC 49624) = experiment: as above; assay type: cell-based, E. faecium; details: zone of inhibition relative to 1 mg/ml stock solution of p-chlorobiphenylvancomycin;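 further: score 3 means fourfold and score 4 sixteenfold the reference zone size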
# Summary of the method: as §2
# E. faecalis ATCC 29212 = experiment: MIC determination in BHI media, OD600; assay type: cell-based; details: BHI + 0.1% casamino acids, 18 hours at 37° C., ≧90% OD600 inhibition
# Summary of the method: as §1
SMILES,MIC E. faecium ATCC 49624 (E. faecium ATCC 49624) [µg/mL],MIC E. faecalis CL 4877 (E. Faecalis CL 4877) [µg/mL],MIC S. aureus ATCC 29213 (S aureus ATCC 29213) [µg/mL],MIC S. aureus ATCC 33591 (S. Aureus ATCC 33591) [µg/mL],MIC E. faecium CL 4931 (E. faecium CL 4931) [µg/mL],"zone score, S. epidermidis ATCC 12228 [1]","zone score, E. faecalis CL 4877 (E. faecalis (CL 4877))","zone score, S. aureus ATCC 29213 (S. aureus (ATCC 29213))","zone score, E. faecium ATCC 49624 (E. faceium (ATCC 49624))",MIC E. faecalis ATCC 29212 (E. faecalis ATCC 29212) [µg/mL]
"CN[C@H](CC(C)C)C(=O)N[C@H]1C(=O)N[C@@H](CC(N)=O)C(=O)N[C@H]2C(=O)N[C@H]3C(=O)N[C@H](C(=O)N[C@H](C(=O)O)c4cc(O)cc(O)c4-c4cc3ccc4O)[C@H](O)c3ccc(c(Cl)c3)Oc3cc2cc(c3O[C@@H]2O[C@H](CO)[C@@H](O)[C@H](O)[C@H]2O[C@H]2C[C@](C)(N)[C@H](O)[C@H](C)O2)Oc2ccc(cc2Cl)[C@H]1O [Compound 0, Vancomycin, reference compound]",1.25,> 250,1.25,2.5,> 250,–,–,–,–,–
C[C@H](O)C(=O)N[C@H]1C(=O)N[C@@H](CC(N)=O)C(=O)N[C@H]2C(=O)N[C@H]3C(=O)N[C@H](C(=O)N[C@@H](C(=O)O)c4cc(O)cc(O)c4-c4cc3ccc4O)[C@H](O)c3ccc(c(Cl)c3)Oc3cc2cc(c3O[C@@H]2O[C@H](CO)[C@@H](O)[C@H](O)[C@H]2O[C@@H]2C[C@@](C)(NCc3ccc(-c4ccc(Cl)cc4)cc3)[C@@H](O)[C@@H](C)O2)Oc2ccc(cc2Cl)[C@H]1O [Compound 21],–,25,–,–,25,2,2,2,–,–
CSCCC(N)C(=O)NC1C(=O)NC(CC(N)=O)C(=O)NC2C(=O)NC3C(=O)NC(C(=O)NC(C(=O)O)c4cc(O)cc(O)c4-c4cc3ccc4O)C(O)c3ccc(c(Cl)c3)Oc3cc2cc(c3OC2OC(CO)C(O)C(O)C2OC2CC(C)(NCc3ccc(-c4ccc(Cl)cc4)cc3)C(O)C(C)O2)Oc2ccc(cc2Cl)C1O (stereo not shown) [Compound 41],0.25,–,0.39,0.39,–,–,2,–,2,0.78
CC1OC(OC2C(Oc3c4cc5cc3Oc3ccc(cc3Cl)C(O)C3NC(=O)C(NC(=O)C5NC(=O)C(CC(N)=O)NC(=O)C(NC(=O)C(N)CCCNC(=O)c5cnccn5)C(O)c5ccc(c(Cl)c5)O4)c4ccc(O)c(c4)-c4c(O)cc(O)cc4C(C(=O)O)NC3=O)OC(CO)C(O)C2O)CC(C)(NCc2ccc(-c3ccc(Cl)cc3)cc2)C1O (stereo not shown) [Compound 83],0.25,–,0.39,0.78,25,–,–,2,2,0.78
CC1OC(OC2C(Oc3c4cc5cc3Oc3ccc(cc3Cl)C(O)C3NC(=O)C(NC(=O)C5NC(=O)C(CC(N)=O)NC(=O)C(NC(=O)C(N)CO)C(O)c5ccc(c(Cl)c5)O4)c4ccc(O)c(c4)-c4c(O)cc(O)cc4C(C(=O)O)NC3=O)OC(CO)C(O)C2O)CC(C)(NCc2ccc(-c3ccc(Cl)cc3)cc2)C1O (stereo not shown) [Compound 88],0.78,25,0.78,–,–,2,2,2,2,–
CC1OC(OC2C(Oc3c4cc5cc3Oc3ccc(cc3Cl)C(O)C3NC(=O)C(NC(=O)C5NC(=O)C(CC(N)=O)NC(=O)C(NC(=O)CNC(=O)CNC(=O)c5ccc([N+](=O)[O-])cc5)C(O)c5ccc(c(Cl)c5)O4)c4ccc(O)c(c4)-c4c(O)cc(O)cc4C(C(=O)O)NC3=O)OC(CO)C(O)C2O)CC(C)(NCc2ccc(-c3ccc(Cl)cc3)cc2)C1O (stereo not shown) [Compound 108],–,> 25,0.78,0.78,> 25,–,–,2,–,–
CC1OC(OC2C(Oc3c4cc5cc3Oc3ccc(cc3Cl)C(O)C3NC(=O)C(NC(=O)C5NC(=O)C(CC(N)=O)NC(=O)C(NC(=O)C(N)CSC(C)(C)C)C(O)c5ccc(c(Cl)c5)O4)c4ccc(O)c(c4)-c4c(O)cc(O)cc4C(C(=O)O)NC3=O)OC(CO)C(O)C2O)CC(C)(NCc2ccc(-c3ccc(Cl)cc3)cc2)C1O (stereo not shown) [Compound 333],–,25,–,–,25,–,–,–,–,–
CC1OC(OC2C(Oc3c4cc5cc3Oc3ccc(cc3Cl)C(O)C3NC(=O)C(NC(=O)C5NC(=O)C(CC(N)=O)NC(=O)C(NC(=O)C(N)CSC(C)(C)C)C(O)c5ccc(c(Cl)c5)O4)c4ccc(O)c(c4)-c4c(O)cc(O)cc4C(C(=O)O)NC3=O)OC(CO)C(O)C2O)CC(C)(NCc2ccc(-c3ccc(Cl)cc3)cc2)C1O (stereo not shown) [Compound 334],0.12,–,0.25,0.25,25,–,–,–,–,0.78
CC1OC(OC2C(Oc3c4cc5cc3Oc3ccc(cc3Cl)C(O)C3NC(=O)C(NC(=O)C5NC(=O)C(CC(N)=O)NC(=O)C(NC(=O)C(N)COCc5ccccc5)C(O)c5ccc(c(Cl)c5)O4)c4ccc(O)c(c4)-c4c(O)cc(O)cc4C(C(=O)O)NC3=O)OC(CO)C(O)C2O)CC(C)(NCc2ccc(-c3ccc(Cl)cc3)cc2)C1O (stereo not shown) [Compound 338],0.25,25,–,0.39,–,–,–,–,–,–
CNC(C(=O)NC1C(=O)NC(CC(N)=O)C(=O)NC2C(=O)NC3C(=O)NC(C(=O)NC(C(=O)O)c4cc(O)cc(O)c4-c4cc3ccc4O)C(O)c3ccc(c(Cl)c3)Oc3cc2cc(c3OC2OC(CO)C(O)C(O)C2OC2CC(C)(NCc3ccc(-c4ccc(Cl)cc4)cc3)C(O)C(C)O2)Oc2ccc(cc2Cl)C1O)C(C)C (stereo not shown) [Compound 340],0.39,25,0.39,0.39,–,–,–,–,–,–
CCCC(N)C(=O)NC1C(=O)NC(CC(N)=O)C(=O)NC2C(=O)NC3C(=O)NC(C(=O)NC(C(=O)O)c4cc(O)cc(O)c4-c4cc3ccc4O)C(O)c3ccc(c(Cl)c3)Oc3cc2cc(c3OC2OC(CO)C(O)C(O)C2OC2CC(C)(NCc3ccc(-c4ccc(Cl)cc4)cc3)C(O)C(C)O2)Oc2ccc(cc2Cl)C1O (stereo not shown) [Compound 341],0.78,25,0.78,0.78,–,–,–,–,–,–
CN[C@H](CC(C)C)C(=O)N[C@H]1C(=O)N[C@@H](CC(N)=O)C(=O)N[C@H]2C(=O)N[C@H]3C(=O)N[C@H](C(=O)N[C@@H](C(=O)O)c4cc(O)cc(O)c4-c4cc3ccc4O)[C@H](O)c3ccc(c(Cl)c3)Oc3cc2cc(c3O[C@@H]2O[C@H](CI)[C@@H](O)[C@H](O)[C@H]2O[C@@H]2C[C@@](C)(NCc3ccc(-c4ccc(Cl)cc4)cc3)[C@@H](O)[C@@H](C)O2)Oc2ccc(cc2Cl)[C@H]1O [Compound 519],0.78,> 25,–,–,> 25,–,–,–,–,–
COCC(N)C(=O)NC1C(=O)NC(CC(N)=O)C(=O)NC2C(=O)NC3C(=O)NC(C(=O)NC(C(=O)O)c4cc(O)cc(O)c4-c4cc3ccc4O)C(O)c3ccc(c(Cl)c3)Oc3cc2cc(c3OC2OC(CO)C(O)C(O)C2OC2CC(C)(NCc3ccc(-c4ccc(Cl)cc4)cc3)C(O)C(C)O2)Oc2ccc(cc2Cl)C1O (stereo not shown) [Compound 525],0.25,25,0.39,0.39,25,–,–,–,–,–
CNC(COC(C)(C)C)C(=O)NC1C(=O)NC(CC(N)=O)C(=O)NC2C(=O)NC3C(=O)NC(C(=O)NC(C(=O)O)c4cc(O)cc(O)c4-c4cc3ccc4O)C(O)c3ccc(c(Cl)c3)Oc3cc2cc(c3OC2OC(CO)C(O)C(O)C2OC2CC(C)(NCc3ccc(-c4ccc(Cl)cc4)cc3)C(O)C(C)O2)Oc2ccc(cc2Cl)C1O (stereo not shown) [Compound 526],0.25,–,0.39,0.39,25,–,–,–,–,0.78
CC(C)OCC(N)C(=O)NC1C(=O)NC(CC(N)=O)C(=O)NC2C(=O)NC3C(=O)NC(C(=O)NC(C(=O)O)c4cc(O)cc(O)c4-c4cc3ccc4O)C(O)c3ccc(c(Cl)c3)Oc3cc2cc(c3OC2OC(CO)C(O)C(O)C2OC2CC(C)(NCc3ccc(-c4ccc(Cl)cc4)cc3)C(O)C(C)O2)Oc2ccc(cc2Cl)C1O (stereo not shown) [Compound 528],0.12,–,0.25,0.25,25,–,–,–,–,0.78
CC(C)OCC(N)C(=O)NC1C(=O)NC(CC(N)=O)C(=O)NC2C(=O)NC3C(=O)NC(C(=O)NC(C(=O)O)c4cc(O)cc(O)c4-c4cc3ccc4O)C(O)c3ccc(c(Cl)c3)Oc3cc2cc(c3OC2OC(CO)C(O)C(O)C2OC2CC(C)(NCc3ccc(-c4ccc(Cl)cc4)cc3)C(O)C(C)O2)Oc2ccc(cc2Cl)C1O (stereo not shown) [Compound 529],0.12,–,0.25,0.25,25,–,–,–,–,0.78
CC1OC(OC2C(Oc3c4cc5cc3Oc3ccc(cc3Cl)C(O)C3NC(=O)C(NC(=O)C5NC(=O)C(CC(N)=O)NC(=O)C(NC(=O)C(N)Cc5c[nH]cn5)C(O)c5ccc(c(Cl)c5)O4)c4ccc(O)c(c4)-c4c(O)cc(O)cc4C(C(=O)O)NC3=O)OC(CO)C(O)C2O)CC(C)(NCc2ccc(-c3ccc(Cl)cc3)cc2)C1O (stereo not shown) [Compound 554],0.39,25,–,0.78,–,–,–,–,–,–
CC1OC(OC2C(Oc3c4cc5cc3Oc3ccc(cc3Cl)C(O)C3NC(=O)C(NC(=O)C5NC(=O)C(CC(N)=O)NC(=O)C(NC(=O)C(N)Cc5ccc(O)c([N+](=O)[O-])c5)C(O)c5ccc(c(Cl)c5)O4)c4ccc(O)c(c4)-c4c(O)cc(O)cc4C(C(=O)O)NC3=O)OC(CO)C(O)C2O)CC(C)(NCc2ccc(-c3ccc(Cl)cc3)cc2)C1O (stereo not shown) [Compound 557],0.39,25,–,–,25,–,–,–,–,–
